This experiment has as its target Solute carrier family 2, facilitated glucose transporter member 4 (Homo sapiens) (UniProt P14672). In words: GLUT4 glucose uptake inhibitors and substrates, dose response, cell-based, flow cytometry, glucose FRET sensor, HEK293 JumpIN TRex, wild type (AID 1794828). The note with it: HEK293 JumpIN SLC2A4-OE. Background: In flow cytometry, cells or beads pass a laser one at a time.

pIC50: −log10 of the molar value.

Solute carrier family 2, facilitated glucose transporter member 4 (Homo sapiens), sequence (P14672 whole entry, looked up): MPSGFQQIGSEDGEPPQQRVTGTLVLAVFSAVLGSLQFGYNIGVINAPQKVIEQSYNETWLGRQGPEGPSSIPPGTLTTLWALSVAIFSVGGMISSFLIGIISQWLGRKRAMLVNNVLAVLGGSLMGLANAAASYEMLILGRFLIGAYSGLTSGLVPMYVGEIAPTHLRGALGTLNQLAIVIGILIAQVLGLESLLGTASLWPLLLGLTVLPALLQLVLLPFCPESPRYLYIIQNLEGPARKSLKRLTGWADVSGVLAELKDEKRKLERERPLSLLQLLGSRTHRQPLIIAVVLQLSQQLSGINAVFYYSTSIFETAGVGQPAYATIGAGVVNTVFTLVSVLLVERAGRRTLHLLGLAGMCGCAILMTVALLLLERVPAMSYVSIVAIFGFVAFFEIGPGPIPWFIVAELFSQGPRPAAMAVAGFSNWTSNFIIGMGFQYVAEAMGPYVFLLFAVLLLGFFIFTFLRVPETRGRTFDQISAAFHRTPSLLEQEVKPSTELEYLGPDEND

For `OC[C@H]1OC(O)[C@H](O)[C@@H](O)[C@@H]1O` (stereo partly drawn), the EC50 (substrate uptake, increase) was 860 µM.

Usually pIC50 stands for the negative decadic logarithm of the IC50, by convention in mol/L. As for `O=C(Oc1cccc(F)c1OC(=O)c1cccc(O)c1)c1cccc(O)c1`, the negative logarithm of the IC50 (pIC50) was 5.60.

Take `Cc1c(NC(=O)c2cc(C(N)=O)nc3cc(F)ccc23)c(C(F)(F)F)nn1Cc1ccc(C#N)cc1`: the pIC50 is 5.26.

The values are drawn from PubChem BioAssay AID1794828.
